Measurements: PubChem BioAssay AID192 (DTP/NCI, 2004)
Where “and” joins values, the source holds several entries; their conditions need not be identical. Equal entries are not always repeated. Toxic doses and inconclusive results are not listed.

Tested on: BDF1 mice, B16 melanoma ip, median survival T/C
Assay: NCI In Vivo Anticancer Drug Screen. Data for tumor model B16 Melanoma (intraperitoneal) in B6D2F1 (BDF1) mice
Settings: endpoint: median survival time, higher = longer survival
Procedure, shortened: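 Mice with transplantable tumors; drug vs vehicle groups; endpoint survival or tumor size; value = T/C.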

[1] = dose: 100.0 mg/kg/injection, schedule: Q01DX009 (ip), vehicle: Klucel (hydroxypropylcellulose) (HPC)
[2] = dose: 200.0 mg/kg/injection, schedule: Q01DX009 (ip), vehicle: Klucel (hydroxypropylcellulose) (HPC)
[3] = dose: 400.0 mg/kg/injection, schedule: Q01DX009 (ip), vehicle: Klucel (hydroxypropylcellulose) (HPC)
[4] = dose: 50.0 mg/kg/injection, schedule: Q01DX009 (ip), vehicle: Klucel (hydroxypropylcellulose) (HPC)
[5] = dose: 6.25 mg/kg/injection, schedule: Q01DX009 (ip), vehicle: saline with Tween-80
[6] = dose: 12.5 mg/kg/injection, schedule: Q01DX009 (ip), vehicle: saline with Tween-80
[7] = dose: 25.0 mg/kg/injection, schedule: Q01DX009 (ip), vehicle: saline with Tween-80
[8] = dose: 50.0 mg/kg/injection, schedule: Q01DX009 (ip), vehicle: saline with Tween-80
[9] = dose: 25.0 mg/kg/injection, schedule: Q01DX009 (ip), vehicle: saline
[10] = dose: 50.0 mg/kg/injection, schedule: Q01DX009 (ip), vehicle: saline
[11] = dose: 100.0 mg/kg/injection, schedule: Q01DX009 (ip), vehicle: saline
[12] = dose: 100.0 mg/kg/injection, schedule: Q01DX009 (ip), vehicle: saline with Tween-80
[13] = dose: 200.0 mg/kg/injection, schedule: Q01DX009 (ip), vehicle: saline with Tween-80

With O=C1C(CCSc2ccccc2)C(=O)N(c2ccccc2)C1c1ccccc1 (centres undefined) the T/C [1] was 116 % of control, the T/C [2] was 113 % of control and the T/C [3] was 110 % of control.
In the case of COc1ccc(CCN2CSC(=S)N(CCc3ccc(OC)c(OC)c3)C2)cc1OC, the T/C [1] was 106 % of control, the T/C [2] was 95 % of control and the T/C [3] was 95 % of control.
With O=P(OCc1ccccc1)(OCc1ccccc1)C(Nc1ccccc1)c1ccccc1 (centres undefined) the T/C [4] was 97 % of control, the T/C [1] was 90 % of control and the T/C [2] was 90 % of control.
For CC(=O)NC1CC2c3ccccc3C1([N+](=O)[O-])c1ccccc12 (centres undefined), the T/C [1] was 100 % of control, the T/C [2] was 94 % of control and the T/C [3] was 91 % of control.
In the case of CCCCCCCCCCCC1=C(O)C(=O)C=C(O)C1=O, the T/C [5] was 102 % of control, the T/C [6] was 96 % of control and the T/C [7] was 86 % of control.
C=CCOCC(O)CN(CCC)CCC (centres undefined) was tested, and the T/C [6] was 114 % of control, the T/C [7] was 112 % of control and the T/C [8] was 114 % of control.
In the case of CCN(CC)C(=O)c1ccc(C(Cl)(Cl)Cl)cc1, the T/C [5] was 95 % of control, the T/C [6] was 98 % of control and the T/C [7] was 90 % of control and 92 % of control.
In the case of c1ccc(CN2CCOC2)cc1, the T/C (dose: 12.5 mg/kg/injection, schedule: Q01DX009 (ip), vehicle: saline) was 115 % of control, the T/C [9] was 111 % of control and the T/C [10] was 122 % of control. For the same compound, the T/C [11] was 111 % of control.
Cc1cc(C)c(NC(=O)c2cccc(C(=O)Nc3c(C)cc(C)cc3C)c2)c(C)c1 was tested, and the T/C [1] was 93 % of control, the T/C [2] was 86 % of control and the T/C [3] was 90 % of control.
With NC(=O)Nc1cc(NC(N)=O)cc(N(CCCl)CCCl)c1 the T/C (dose: 1.56 mg/kg/injection, schedule: Q01DX009 (ip), vehicle: Klucel (hydroxypropylcellulose) (HPC)) was 88 % of control, the T/C (dose: 3.13 mg/kg/injection, schedule: Q01DX009 (ip), vehicle: Klucel (hydroxypropylcellulose) (HPC)) was 101 % of control and the T/C (dose: 6.25 mg/kg/injection, schedule: Q01DX009 (ip), vehicle: Klucel (hydroxypropylcellulose) (HPC)) was 91 % of control. For the same compound, the T/C (dose: 12.5 mg/kg/injection, schedule: Q01DX009 (ip), vehicle: Klucel (hydroxypropylcellulose) (HPC)) was 96 % of control, the T/C (dose: 25.0 mg/kg/injection, schedule: Q01DX009 (ip), vehicle: Klucel (hydroxypropylcellulose) (HPC)) was 108 % of control and the T/C [4] was 98 % of control.
With S=P(NCCS)(N1CC1)N1CC1 the T/C [5] was 95 % of control, the T/C [6] was 96 % of control and the T/C [7] was 98 % of control. The T/C (dose: 100.0 mg/kg/injection, schedule: Q04DX003 (ip), vehicle: saline with Tween-80) was 105 % of control, the T/C (dose: 200.0 mg/kg/injection, schedule: Q04DX003 (ip), vehicle: saline with Tween-80) was 97 % of control and the T/C (dose: 400.0 mg/kg/injection, schedule: Q04DX003 (ip), vehicle: saline with Tween-80) was 95 % of control.
In the case of CCCCCCCCCCCCCC(C)NCc1ccccc1 (centres undefined), the T/C (dose: 3.13 mg/kg/injection, schedule: Q01DX009 (ip), vehicle: saline with Tween-80) was 100 % of control, the T/C [5] was 100 % of control and the T/C [6] was 100 % of control.
COC(=O)c1cc(C)ccc1O was tested, and the T/C [8] was 108 % of control, the T/C [12] was 97 % of control and the T/C [13] was 105 % of control.
O=C(NC1CCCCC1)OCc1c(COC(=O)NC2CCCCC2)c(-c2ccc(Cl)c(Cl)c2)n2c1CCC2 was tested, and the T/C [6] was 169 % of control, the T/C [7] was 214 % of control and the T/C (dose: 25.0 mg/kg/injection, schedule: Q01DX009 (oral), vehicle: saline with Tween-80) was 107 % of control. The T/C [8] was 290 % of control, the T/C (dose: 50.0 mg/kg/injection, schedule: Q01DX009 (oral), vehicle: saline with Tween-80) was 102 % of control and the T/C [12] was 304 % of control. The T/C (dose: 100.0 mg/kg/injection, schedule: Q01DX009 (oral), vehicle: saline with Tween-80) was 106 % of control, the T/C [13] was 153 % of control and the T/C (dose: 200.0 mg/kg/injection, schedule: Q01DX009 (oral), vehicle: saline with Tween-80) was 107 % of control. For the same compound, the T/C (dose: 400.0 mg/kg/injection, schedule: Q01DX009 (ip), vehicle: saline with Tween-80) was 91 % of control, the T/C (dose: 400.0 mg/kg/injection, schedule: Q01DX009 (oral), vehicle: saline with Tween-80) was 106 % of control and the T/C (dose: 800.0 mg/kg/injection, schedule: Q01DX009 (oral), vehicle: saline with Tween-80) was 102 % of control.
In the case of OC1CCC(O)C1(Cl)Cl (centres undefined), the T/C [9] was 98 % of control, the T/C [10] was 109 % of control and the T/C [11] was 91 % of control.
With CC(=O)CC(=O)Nc1cccc(O)c1 the T/C [1] was 92 % of control, the T/C [2] was 92 % of control and the T/C [3] was 86 % of control.
